We go through 25 molecules from US11730720B2, “ALK5 inhibitors” (THERAVANCE BIOPHARMA R&D IP, LLC, priority 2018, dated 2023).

Experiment [1] deals with TGF-β-stimulated SMAD3 phosphorylation in BEAS-2B cells. Nature of the experiment: Cellular ALK5 potency assay, inhibition of TGF-β stimulated pSMAD3 formation in BEAS-2B cells. In kind it is cell-based. The following applies: Homo sapiens, inhibition of TGF-β (10 ng/mL) stimulated pSMAD3 formation, 1 hour compound incubation, read-out: BEAS2B pIC50 (converted). The method in brief:
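Phospho-SMAD3 was quantified by AlphaLISA in lysates of human lung epithelial BEAS-2B cells. Compound was added 1 h (37 °C, HEPES/BSA-supplemented HBSS) before a 30 min challenge with 10 ng/mL TGF-β. Values are pIC50 relative to stimulated cells without compound.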

For experiment [2], the target named is T1, recombinant human ALK5 (TGF-βR1) protein (Homo sapiens, UniProt P36897).
T1 construct: purchased Life Technologies PR9075A
T1 sequence (P36897 34-503): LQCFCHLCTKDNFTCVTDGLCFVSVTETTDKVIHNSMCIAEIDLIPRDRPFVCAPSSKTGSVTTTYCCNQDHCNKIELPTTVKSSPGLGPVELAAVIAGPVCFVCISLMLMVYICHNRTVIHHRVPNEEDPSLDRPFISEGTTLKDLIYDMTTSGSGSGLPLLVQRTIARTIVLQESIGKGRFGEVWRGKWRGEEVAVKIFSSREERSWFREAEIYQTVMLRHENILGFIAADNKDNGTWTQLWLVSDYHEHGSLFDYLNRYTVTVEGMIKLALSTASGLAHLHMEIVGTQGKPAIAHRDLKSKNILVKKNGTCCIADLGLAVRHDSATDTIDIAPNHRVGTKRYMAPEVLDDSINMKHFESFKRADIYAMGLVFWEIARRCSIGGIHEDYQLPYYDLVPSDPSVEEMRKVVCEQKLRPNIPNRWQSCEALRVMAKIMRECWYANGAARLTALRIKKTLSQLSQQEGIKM
The experiment in a line: Biochemical ALK5 (TGF-βR1) assay to measure pKi (LANCE Ultra ULight kinase assay). The following applies: apparent pKi, converted from pIC50 using the Cheng-Prusoff equation. The essentials:
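TR-FRET kinase format: compound dose range 10 μM–25 pM equilibrated 60 min with human ALK5 and ULight-labelled topoisomerase 2α peptide in HEPES/MgCl2 buffer pH 7.5 with DTT. Reaction started with ATP (125 μM stock, 5× final), 60 min at 37° C, stopped with EDTA/Eu-anti-phospho antibody; pKi derived from pIC50 via Cheng-Prusoff.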

As for `Fc1ccc(Cl)cc1-c1n[nH]cc1-c1ccc2ncc(NCC3CCNCC3)cc2n1` [Compound 1-27, 6-[3-(5-chloro-2-fluoro-phenyl)-1H-pyrazol-4-yl]-N-(4-piperidylmethyl)-1,5-naphthyridin-3-amine], the IC50 in experiment [1] is 25.1 to 158 nM. Moreover, in experiment [2], the Ki was at most 0.0316 nM.
As to `Fc1ccc(Cl)cc1-c1nc2ccccn2c1-c1ccc2ncc(-c3cn[nH]c3)cc2c1` [Compound 19-3, 6-[2-(5-chloro-2-fluoro-phenyl)imidazo[1,2-a]pyridin-3-yl]-3-(1H-pyrazol-4-yl)quinoline], the IC50 in experiment [1] was 25.1 to 158 nM. In experiment [2], the Ki was 0.398 to 3.16 nM.
On the same counts, the results for `Fc1cc(F)c(-c2n[nH]cc2-c2ccc3ncc(-c4ncc5n4CCNC5)cc3n2)cc1Cl` [Compound 6-51, 2-[3-(5-chloro-2,4-difluoro-phenyl)-1H-pyrazol-4-yl]-7-(5,6,7,8-tetrahydroimidazo[1,5-a]pyrazin-3-yl)-1,5-naphthyridine] are 25.1 to 158 nM and 0.398 to 3.16 nM.
The matching figures for `Fc1cc(F)c(-c2n[nH]cc2-c2ccc3ncc(N4CCC(N5CCCCC5)C4)cc3n2)cc1Cl` (racemic) [Compound 6-21, 2-[3-(5-chloro-2,4-difluoro-phenyl)-1H-pyrazol-4-yl]-7-[rac-(3R)-3-(1-piperidyl)pyrrolidin-1-yl]-1,5-naphthyridine]: 25.1 to 158 nM and 0.0398 to 0.316 nM.
The matching figures for `Fc1cc(F)c(-c2n[nH]cc2-c2ccc3ncc(N4CC(N5CCCCC5)C4)cc3n2)cc1Cl` [Compound 6-14, 2-(3-(5-chloro-2,4-difluorophenyl)-1H-pyrazol-4-yl)-7-(3-(piperidin-1-yl)azetidin-1-yl)-1,5-naphthyridine]: 25.1 to 158 nM and 0.0398 to 0.316 nM.
Turning to `CNCCn1cc(-c2cnc3ccc(-c4c[nH]nc4-c4cc(Cl)ccc4F)nc3c2)cn1` [Compound 1-87, 2-(4-(6-(3-(5-chloro-2-fluorophenyl)-1H-pyrazol-4-yl)-1,5-naphthyridin-3-yl)-1H-pyrazol-1-yl)-N-methylethan-1-amine], the IC50 in experiment [1] was at most 20 nM. Moreover, in experiment [2], the Ki was at most 0.0316 nM.
With `NC1CC=C(c2cnc3ccc(-c4c[nH]nc4-c4cc(Cl)ccc4F)nc3c2)CC1` (centres unmarked) [Compound 1-91, 4-(6-(3-(5-chloro-2-fluorophenyl)-1H-pyrazol-4-yl)-1,5-naphthyridin-3-yl)cyclohex-3-en-1-amine], the IC50 in experiment [1] is at most 20 nM. Besides, the Ki in experiment [2] is 0.0398 to 0.316 nM.
On the same counts, the results for `CC(C)NCCn1cc(-c2cnc3ccc(-c4c[nH]nc4-c4cc(Cl)ccc4F)nc3c2)cn1` [Compound 1-94, N-(2-(4-(6-(3-(5-chloro-2-fluorophenyl)-1H-pyrazol-4-yl)-1,5-naphthyridin-3-yl)-1H-pyrazol-1-yl)ethyl)propan-2-amine] are 25.1 to 158 nM and at most 0.0316 nM.
For `O=C(O)[C@H]1CN(c2cnc3ccc(-c4nc[nH]c4-c4cc(Cl)c(F)cc4F)cc3c2)CCN1` [Compound 22-6, (2R)-4-[6-[5-(5-chloro-2,4-difluoro-phenyl)-1H-imidazol-4-yl]-3-quinolyl]piperazine-2-carboxylic acid], the IC50 in experiment [1] is 1580 to 10000 nM. Also, in experiment [2], the Ki was 3.98 to 31.6 nM.
For `C[C@@H]1CN(CCNc2cnc3ccc(-c4nc[nH]c4-c4cccc(Cl)c4)nc3c2)C[C@H](C)N1` [Compound 29-2, 6-[5-(3-chlorophenyl)-1H-imidazol-4-yl]-N-[2-[rac-(3R,5S)-3,5-dimethylpiperazin-1-yl]ethyl]-1,5-naphthyridin-3-amine], in experiment [1], the IC50 was 25.1 to 158 nM. The Ki in experiment [2] was 0.398 to 3.16 nM.
In the case of `CNCCn1cc(-c2cnc3ccc(-c4nc[nH]c4-c4cccc(Cl)c4)cc3c2)cn1` [Compound 24-1, 2-(4-(6-(5-(3-chlorophenyl)-1H-imidazol-4-yl)quinolin-3-yl)-1H-pyrazol-1-yl)-N-methylethan-1-amine], the IC50 in experiment [1] is at most 20 nM. Moreover, in experiment [2], the Ki is at most 0.0316 nM.
The matching figures for `CNC1CCN(c2cnc3ccc(-c4c[nH]nc4-c4cc(Cl)c(F)cc4F)nc3c2)CC1` [Compound 6-23, 1-(6-(3-(5-chloro-2,4-difluorophenyl)-1H-pyrazol-4-yl)-1,5-naphthyridin-3-yl)-N-methylpiperidin-4-amine]: 25.1 to 158 nM and 0.0398 to 0.316 nM.
On the same counts, the results for `CN1CCN(C2CCN(c3cnc4ccc(-c5c(-c6cc(Cl)ccc6F)nc6ccccn56)cc4c3)CC2)CC1` [Compound 19-5, 6-[2-(5-chloro-2-fluoro-phenyl)imidazo[1,2-a]pyridin-3-yl]-3-[4-(4-methylpiperazin-1-yl)-1-piperidyl]quinoline] are 200 to 1260 nM and 0.0398 to 0.316 nM.
Turning to `CC(C)N1CCN(CCNc2cnc3ccc(-c4c[nH]nc4-c4cc(Cl)ccc4F)cc3c2)CC1` [Compound 16-5, 6-(3-(5-chloro-2-fluorophenyl)-1H-pyrazol-4-yl)-N-(2-(4-isopropylpiperazin-1-yl)ethyl)quinolin-3-amine], the IC50 in experiment [1] is 25.1 to 158 nM. Besides, the Ki in experiment [2] is 0.398 to 3.16 nM.
On the same counts, the results for `CNC1CCN(c2cnc3ccc(-c4c[nH]nc4-c4cccc(COC)c4)nc3c2)CC1` [Compound 14-1, 1-(6-(3-(3-(methoxymethyl)phenyl)-1H-pyrazol-4-yl)-1,5-naphthyridin-3-yl)-N-methylpiperidin-4-amine] are 25.1 to 158 nM and 3.98 to 31.6 nM.
With `CNC(=O)C1CN(c2cnc3ccc(-c4c[nH]nc4-c4cc(Cl)ccc4F)nc3c2)CCN1C(C)C` (racemic) [Compound 1-78, rac-(2R)-4-[6-[3-(5-chloro-2-fluoro-phenyl)-1H-pyrazol-4-yl]-1,5-naphthyridin-3-yl]-1-isopropyl-N-methyl-piperazine-2-carboxamide], in experiment [1], the IC50 is 25.1 to 158 nM. In addition, in experiment [2], the Ki is 0.0398 to 0.316 nM.
The matching figures for `CNC1CCN(c2cnc3ccc(-c4c[nH]nc4-c4cc(Cl)c(F)cc4F)nc3c2)C1` (centres unmarked) [Compound 6-35, 1-[6-[3-(5-chloro-2,4-difluoro-phenyl)-1H-pyrazol-4-yl]-1,5-naphthyridin-3-yl]-N-methyl-pyrrolidin-3-amine]: at most 20 nM and at most 0.0316 nM.
On the same counts, the results for `CC(C)N1CCN(c2cnc3ccc(-c4c[nH]nc4-c4ccccc4F)nc3c2)CC1` [Compound 11-3, 2-[3-(2-fluorophenyl)-1H-pyrazol-4-yl]-7-(4-isopropylpiperazin-1-yl)-1,5-naphthyridine] are 25.1 to 158 nM and 3.98 to 31.6 nM.
`CN1CCN(CC(C)(C)Nc2cnc3ccc(-c4c[nH]nc4-c4cc(Cl)ccc4F)nc3c2)CC1` [Compound 1-9, 6-[3-(5-chloro-2-fluoro-phenyl)-1H-pyrazol-4-yl]-N-[1,1-dimethyl-2-(4-methylpiperazin-1-yl)ethyl]-1,5-naphthyridin-3-amine]: the IC50 in experiment [1] is 200 to 1260 nM. For the same molecule, in experiment [2], the Ki is 3.98 to 31.6 nM.
On the same counts, the results for `O=C(O)[C@H]1CN(c2cnc3ccc(-c4c[nH]nc4-c4cc(Cl)c(F)cc4F)nc3c2)CCN1` [Compound 6-68, (2R)-4-[6-[3-(5-chloro-2,4-difluoro-phenyl)-1H-pyrazol-4-yl]-1,5-naphthyridin-3-yl]piperazine-2-carboxylic acid] are 200 to 1260 nM and 0.398 to 3.16 nM.
As to `Fc1ccc(Cl)cc1-c1n[nH]cc1-c1ccc2ncc(-c3cn(Cc4cnc5c(c4)CNCC5)nn3)cc2n1` [Compound 1-112, 2-[3-(5-chloro-2-fluoro-phenyl)-1H-pyrazol-4-yl]-7-[1-(5,6,7,8-tetrahydro-1,6-naphthyridin-3-ylmethyl)triazol-4-yl]-1,5-naphthyridine], the IC50 in experiment [1] was 25.1 to 158 nM. Also, the Ki in experiment [2] was 0.0398 to 0.316 nM.
Take `COC(=O)[C@H]1CN(c2cnc3ccc(-c4c[nH]nc4-c4cc(Cl)c(F)cc4F)nc3c2)CCN1` [Compound 6-27, methyl (2R)-4-[6-[3-(5-chloro-2,4-difluoro-phenyl)-1H-pyrazol-4-yl]-1,5-naphthyridin-3-yl]piperazine-2-carboxylate]: in experiment [1], the IC50 was 25.1 to 158 nM. In addition, in experiment [2], the Ki was 0.398 to 3.16 nM.
On the same counts, the results for `Cn1cccc(-c2cnc3ccc(-c4c[nH]nc4-c4cc(Cl)ccc4F)nc3c2)c1=O` [Compound 1-90, 3-(6-(3-(5-chloro-2-fluorophenyl)-112-pyrazol-4-yl)-1,5-naphthyridin-3-yl)-1-methylpyridin-2(1H)-one] are at most 20 nM and 0.0398 to 0.316 nM.
`CC(C)N1CCN(CCNc2cnc3ccc(-c4c[nH]nc4-c4ccc(F)c(F)c4)nc3c2)CC1` [Compound 8-1, 6-(3-(3,4-difluorophenyl)-1H-pyrazol-4-yl)-N-(2-(4-isopropylpiperazin-1-yl)ethyl)-1,5-naphthyridin-3-amine]: in experiment [1], the IC50 is 25.1 to 158 nM. Also, the Ki in experiment [2] is 3.98 to 31.6 nM.
On the same counts, the results for `COCc1cccc(-c2n[nH]cc2-c2ccc3ncc(C4=CCC(N)CC4)cc3n2)c1` (centres unmarked) [Compound 14-12, 4-[6-[3-[3-(methoxymethyl)phenyl]-1H-pyrazol-4-yl]-1,5-naphthyridin-3-yl]cyclohex-3-en-1-amine] are 25.1 to 158 nM and 0.398 to 3.16 nM.
